Measured values as given in patent US6602860B1, “Crystalline mixtures of partial methyl ethers of beta-cyclodextrin and related compounds” (priority 1999, dated 2003).

Experiment: Solubilizing potency: solubility of hydrocortisone in aqueous solutions of cyclodextrin derivatives
Type: physicochemical
Conditions: 5% (w/w) aqueous solutions of the derivative; P264 and P258 crystalline components used without heat drying

Heptakisdimethylbetacyclodextrin
Solubility Of Hydrocortisone: 8.8 mg/mL
